In DBAASP one finds MIC data, which are given here for three molecules.

≈ marks a conversion by molar mass, not a printed value.

Experiment in all cases: ≥ marks a high value that may be exact or a test limit, other limits are often not marked, values filed in µg/mL are converted to µM
Assay [1] concerns Bacillus subtilis ATCC 6633.
The subject of assay [2] is Candida albicans ATCC 10231.
The test system of assay [3] is Candida parapsilosis ATCC 22019.
The test system of assay [4] is Cryptococcus neoformans.
The test system of assay [5] is Escherichia coli ATCC 9637.
For assay [6], the system named is Klebsiella pneumoniae ATCC 27736.
Assay [7] deals with Pseudomonas aeruginosa ATCC BAA-427.
Assay [8] relates to Sporothrix schenckii.
The test system of assay [9] is Staphylococcus aureus ATCC 25923.
Assay [10] concerns Staphylococcus aureus ATCC 29213.
Assay [11] deals with Staphylococcus aureus ATCC 33592.
In assay [12] the test system is Staphylococcus aureus ATCC 700698.
Assay [13] concerns Staphylococcus aureus ATCC 700699.
In assay [14] the test system is Staphylococcus aureus ATCC BAA-44.
Assay [15] deals with Escherichia coli ATCC 25922.
Assay [16] concerns Klebsiella pneumoniae ATCC 13883.
Assay [17] has as its system Pseudomonas aeruginosa PAO1.
Assay [18] concerns Staphylococcus aureus USA 300 LAC.
Assay [19] concerns Staphylococcus aureus USA 300.
The test system of assay [20] is Bacillus subtilis KCTC 3068.
Assay [21] concerns Salmonella typhimurium CMCC 50013.

Regarding `CC[C@H](C)[C@H](NC(=O)[C@H](C)NC(=O)[C@H](CCCCN)NC(=O)CNC(=O)[C@H](C)NC(=O)[C@H](Cc1cnc[nH]1)NC(=O)[C@@H](NC(=O)[C@H](C)NC(=O)[C@@H]1CCCN1C(=O)[C@H](CCCCN)NC(=O)[C@@H](NC(=O)[C@H](CC(C)C)NC(=O)[C@H](Cc1c[nH]c2ccccc12)NC(=O)CNC(=O)[C@H](Cc1ccccc1)NC(=O)[C@@H](N)Cc1ccccc1)[C@@H](C)CC)[C@@H](C)CC)C(=O)N[C@@H](Cc1cnc[nH]1)C(=O)NCC(=O)N[C@@H](CC(C)C)C(=O)N[C@H](C(=O)N[C@@H](Cc1cnc[nH]1)C(=O)N[C@@H](CCCN=C(N)N)C(=O)N[C@@H](CCCN=C(N)N)C(=O)N[C@@H](CCCN=C(N)N)C(=O)N[C@@H](Cc1cnc[nH]1)C(=O)O)[C@@H](C)CC` [FFGWLIKPAIHAGKAIHGLIHRRRH], the minimum inhibitory concentration (MIC) came to 3 µM (≈ 8.8 µg/mL) in assay [1]; 3 µM (≈ 8.8 µg/mL) in assay [2]; 6.8 µM (≈ 19.9 µg/mL) in [3]; 6.8 µM (≈ 19.9 µg/mL) in assay [4]; 3.3 µM (≈ 9.68 µg/mL) in assay [5]; 3.3 µM (≈ 9.68 µg/mL) in assay [6]. In addition, the MIC in assay [7] was 6.8 µM (≈ 19.9 µg/mL); in assay [8], 13.6 µM (≈ 39.9 µg/mL); in assay [9], 3 µM (≈ 8.8 µg/mL); in assay [10], 1.6 µM (≈ 4.69 µg/mL); in assay [11], 0.8 µM (≈ 2.35 µg/mL); in [12], 1.6 µM (≈ 4.69 µg/mL). Also, the minimum inhibitory concentration (MIC) in [13] and in assay [14] was 1.6 µM (≈ 4.69 µg/mL) throughout.
Take `CC[C@H](C)[C@H](NC(=O)[C@H](CCCN=C(N)N)NC(=O)[C@H](CCCN=C(N)N)NC(=O)[C@H](CC(C)C)NC(=O)[C@H](Cc1c[nH]c2ccccc12)NC(=O)[C@H](CCCN=C(N)N)NC(=O)[C@@H](N)Cc1c[nH]c2ccccc12)C(=O)N[C@@H](Cc1c[nH]c2ccccc12)C(N)=O` [WRWLRRIW]: the MIC in assay [15] was found to be 25 µM (≈ 31.8 µg/mL); in assay [16], 25 µM (≈ 31.8 µg/mL); in assay [17], 6.2 µM (≈ 7.88 µg/mL); in [18], 6.2 µM (≈ 7.88 µg/mL); in assay [19], 6.2 µM (≈ 7.88 µg/mL).
Turning to `NCCCC[C@H](NC(=O)[C@H](CCCN=C(N)N)NC(=O)CNC(=O)[C@@H](N)Cc1ccc(O)cc1)C(=O)N[C@@H](CCCCN)C(=O)N[C@@H](CCCN=C(N)N)C(=O)N[C@@H](CCCN=C(N)N)C(=O)N[C@@H](CCC(N)=O)C(=O)N[C@@H](CCCN=C(N)N)C(=O)N[C@@H](CCCN=C(N)N)C(=O)N[C@@H](CCCN=C(N)N)C(=O)O` [YGRKKRRQRRR], the minimal inhibitory concentration (MIC) came out at 26.4 µM (≈ 41.2 µg/mL) in [20], 15.5 µM (≈ 24.1 µg/mL) in [15], 29 µM (≈ 45.2 µg/mL) in [21] and 16.6 µM (≈ 25.9 µg/mL) in [10].
